Laboratory results taken from patent publication US6372446B1, “Method of selectively determining a fungal biomass” (Mycometer ApS, priority 1997, dated 2002).

Assays:
Experiment in all cases: Screening of fungi for enzyme activity with 4-methylumbelliferone-labelled substrates
Assay type in all cases: cell-based
[1] = test system: Penicillium solitum (IBT 13771); details: substrate 10 μM, 25° C., pH 5; for Enzyme activity: amount of released 4-methylumbelliferone: mineral medium; for Enzyme activity: amount of released 4-methylumbelliferone during 5 hours of incubation: vegetable juice medium
[2] = test system: Sodaria fimicola (AAS 17); details: substrate 10 μM, 25° C., pH 5; for Enzyme activity: amount of released 4-methylumbelliferone: mineral medium; for Enzyme activity: amount of released 4-methylumbelliferone during 5 hours of incubation: vegetable juice medium
[3] = test system: Ascobolus crenulatus (AAS 1); details: substrate 10 μM, 25° C., pH 5; for Enzyme activity: amount of released 4-methylumbelliferone: mineral medium; for Enzyme activity: amount of released 4-methylumbelliferone during 5 hours of incubation: vegetable juice medium
[4] = test system: Aureobasidium pullulans (QM 3092); details: substrate 10 μM, 25° C., pH 5; for Enzyme activity: amount of released 4-methylumbelliferone during 5 hours of incubation: Aureobasidium pulluians (QM 3092), vegetable juice medium; for Enzyme activity: amount of released 4-methylumbelliferone: Aureobasidium pullulans (QM 3092), mineral medium
[5] = test system: Mucor racemosus (AAS 310); details: substrate 10 μM, 25° C., pH 5; for Enzyme activity: amount of released 4-methylumbelliferone: mineral medium; for Enzyme activity: amount of released 4-methylumbelliferone during 5 hours of incubation: vegetable juice medium
[6] = test system: Aspergillus oryzae (AGM 11); details: substrate 10 μM, 25° C., pH 5; for Enzyme activity: amount of released 4-methylumbelliferone: mineral medium; for Enzyme activity: amount of released 4-methylumbelliferone during 5 hours of incubation: vegetable juice medium
[7] = test system: Schizophyllum commune (AGM 25); details: substrate 10 μM, 25° C., pH 5; for Enzyme activity: amount of released 4-methylumbelliferone: mineral medium; for Enzyme activity: amount of released 4-methylumbelliferone during 5 hours of incubation: vegetable juice medium
[8] = test system: Rhizomucor pusillus (AAS 300); details: substrate 10 μM, 25° C., pH 5; for Enzyme activity: amount of released 4-methylumbelliferone: mineral medium; for Enzyme activity: amount of released 4-methylumbelliferone during 5 hours of incubation: vegetable juice medium
[9] = test system: Penicillium commune (IBT 13713); details: substrate 10 μM, 25° C., pH 5; for Enzyme activity: amount of released 4-methylumbelliferone: mineral medium; for Enzyme activity: amount of released 4-methylumbelliferone during 5 hours of incubation: vegetable juice medium
Eurotium sp. (AAS 36) = details: substrate 10 μM, 25° C., pH 5; for Enzyme activity: amount of released 4-methylumbelliferone: mineral medium; for Enzyme activity: amount of released 4-methylumbelliferone during 5 hours of incubation: vegetable juice medium
[10] = test system: Paecilomyces farinosus (AGM 5); details: substrate 10 μM, 25° C., pH 5; for Enzyme activity: amount of released 4-methylumbelliferone: mineral medium; for Enzyme activity: amount of released 4-methylumbelliferone during 5 hours of incubation: vegetable juice medium
[11] = test system: Aspergillus versicolor (IBT 13738); details: substrate 10 μM, 25° C., pH 5; for Enzyme activity: amount of released 4-methylumbelliferone: mineral medium; for Enzyme activity: amount of released 4-methylumbelliferone during 5 hours of incubation: vegetable juice medium
[12] = test system: Cladosporium herbarum (AGM 8); details: substrate 10 μM, 25° C., pH 5; for Enzyme activity: amount of released 4-methylumbelliferone: mineral medium; for Enzyme activity: amount of released 4-methylumbelliferone during 5 hours of incubation: vegetable juice medium
[13] = test system: Trametes versicolor (AGM 24); details: substrate 10 μM, 25° C., pH 5; for Enzyme activity: amount of released 4-methylumbelliferone: mineral medium; for Enzyme activity: amount of released 4-methylumbelliferone during 5 hours of incubation: vegetable juice medium

Compound	Enzyme activity: amount of released 4-methylumbelliferone [1] [µmol]	Enzyme activity: amount of released 4-methylumbelliferone during 5 hours of incubation [1]	Enzyme activity: amount of released 4-methylumbelliferone [2] [µmol]	Enzyme activity: amount of released 4-methylumbelliferone during 5 hours of incubation [2]	Enzyme activity: amount of released 4-methylumbelliferone [3] [µmol]	Enzyme activity: amount of released 4-methylumbelliferone during 5 hours of incubation [3] [µmol]	Enzyme activity: amount of released 4-methylumbelliferone during 5 hours of incubation [4]	Enzyme activity: amount of released 4-methylumbelliferone [4] [µmol]	Enzyme activity: amount of released 4-methylumbelliferone [5]	Enzyme activity: amount of released 4-methylumbelliferone during 5 hours of incubation [5]	Enzyme activity: amount of released 4-methylumbelliferone [6] [µmol]	Enzyme activity: amount of released 4-methylumbelliferone during 5 hours of incubation [6]	Enzyme activity: amount of released 4-methylumbelliferone [7]	Enzyme activity: amount of released 4-methylumbelliferone during 5 hours of incubation [7]	Enzyme activity: amount of released 4-methylumbelliferone [8] [µmol]	Enzyme activity: amount of released 4-methylumbelliferone during 5 hours of incubation [8]	Enzyme activity: amount of released 4-methylumbelliferone [9] [µmol]	Enzyme activity: amount of released 4-methylumbelliferone during 5 hours of incubation [9]	Enzyme activity: amount of released 4-methylumbelliferone (Eurotium sp. (AAS 36)) [µmol]	Enzyme activity: amount of released 4-methylumbelliferone during 5 hours of incubation (Eurotium sp. (AAS 36))	further results
Cc1cc(=O)oc2cc(OC3OC(CO)C(O)C(O)C3O)ccc12 [substrate 5, 4-methylumbelliferyl α-D-mannopyranoside]	0	0 µmol	0	*** (2 ≦ ***)	0	0	** (1 ≦ ** 2)	0	0 µmol	* (0.4 ≦ * < 1)	0	*** (2 ≦ ***)	0 µmol	** (1 ≦ ** 2)	0	*** (2 ≦ ***)	0	* (0.4 ≦ * < 1)	0	* (0.4 ≦ * < 1)	Enzyme activity: amount of released 4-methylumbelliferone [10]: 0 µmol; Enzyme activity: amount of released 4-methylumbelliferone during 5 hours of incubation [10]: 0 µmol; Enzyme activity: amount of released 4-methylumbelliferone [11]: 0 µmol; Enzyme activity: amount of released 4-methylumbelliferone during 5 hours of incubation [11]: 0 µmol; Enzyme activity: amount of released 4-methylumbelliferone [12]: 0 µmol; Enzyme activity: amount of released 4-methylumbelliferone during 5 hours of incubation [12]: 0 µmol; Enzyme activity: amount of released 4-methylumbelliferone [13]: 0 µmol; Enzyme activity: amount of released 4-methylumbelliferone during 5 hours of incubation [13]: * (0.4 ≦ * < 1)
CC(=O)N[C@H]1[C@H](Oc2ccc3c(C)cc(=O)oc3c2)O[C@H](COS(=O)(=O)O)[C@@H](O)[C@@H]1O [substrate 1, 4-methylumbelliferyl 7-6(sulfo-2-acetamido-2-deoxy-β-D-glucopyranoside)]	0	0 µmol	0	0 µmol	0	0	0 µmol	0	* (0.4 ≦ * < 1)	* (0.4 ≦ * < 1)	0	0 µmol	* (0.4 ≦ * < 1)	0 µmol	0	0 µmol	0	0 µmol	0	0 µmol	Enzyme activity: amount of released 4-methylumbelliferone [10]: 0 µmol; Enzyme activity: amount of released 4-methylumbelliferone during 5 hours of incubation [10]: 0 µmol; Enzyme activity: amount of released 4-methylumbelliferone [11]: 0 µmol; Enzyme activity: amount of released 4-methylumbelliferone during 5 hours of incubation [11]: 0 µmol; Enzyme activity: amount of released 4-methylumbelliferone [12]: 0 µmol; Enzyme activity: amount of released 4-methylumbelliferone during 5 hours of incubation [12]: 0 µmol; Enzyme activity: amount of released 4-methylumbelliferone [13]: 0 µmol; Enzyme activity: amount of released 4-methylumbelliferone during 5 hours of incubation [13]: 0 µmol
CC(=O)N[C@H]1[C@@H](Oc2ccc3c(C)cc(=O)oc3c2)O[C@H](CO)[C@@H](O)[C@@H]1O [substrate 2, 4-methylumbelliferyl N-acetyl-α-D-glucosaminide]	0	0 µmol	0	0 µmol	0	0	0 µmol	0	0 µmol	0 µmol	0	0 µmol	0 µmol	0 µmol	0	0 µmol	0	0 µmol	0	0 µmol	Enzyme activity: amount of released 4-methylumbelliferone [10]: 0 µmol; Enzyme activity: amount of released 4-methylumbelliferone during 5 hours of incubation [10]: 0 µmol; Enzyme activity: amount of released 4-methylumbelliferone [11]: 0 µmol; Enzyme activity: amount of released 4-methylumbelliferone during 5 hours of incubation [11]: 0 µmol; Enzyme activity: amount of released 4-methylumbelliferone [12]: 0 µmol; Enzyme activity: amount of released 4-methylumbelliferone during 5 hours of incubation [12]: 0 µmol; Enzyme activity: amount of released 4-methylumbelliferone [13]: 0 µmol; Enzyme activity: amount of released 4-methylumbelliferone during 5 hours of incubation [13]: 0 µmol

The next lines start with results.

Enzyme activity: amount of released 4-methylumbelliferone [1] [µmol]	Enzyme activity: amount of released 4-methylumbelliferone during 5 hours of incubation [1]	Enzyme activity: amount of released 4-methylumbelliferone [2] [µmol]	Enzyme activity: amount of released 4-methylumbelliferone during 5 hours of incubation [2]	Enzyme activity: amount of released 4-methylumbelliferone [3] [µmol]	Enzyme activity: amount of released 4-methylumbelliferone during 5 hours of incubation [3] [µmol]	Enzyme activity: amount of released 4-methylumbelliferone during 5 hours of incubation [4]	Enzyme activity: amount of released 4-methylumbelliferone [4] [µmol]	Enzyme activity: amount of released 4-methylumbelliferone [5]	Enzyme activity: amount of released 4-methylumbelliferone during 5 hours of incubation [5]	Enzyme activity: amount of released 4-methylumbelliferone [6] [µmol]	Enzyme activity: amount of released 4-methylumbelliferone during 5 hours of incubation [6]	Enzyme activity: amount of released 4-methylumbelliferone [7]	Enzyme activity: amount of released 4-methylumbelliferone during 5 hours of incubation [7]	Enzyme activity: amount of released 4-methylumbelliferone [8] [µmol]	Enzyme activity: amount of released 4-methylumbelliferone during 5 hours of incubation [8]	Enzyme activity: amount of released 4-methylumbelliferone [9] [µmol]	Enzyme activity: amount of released 4-methylumbelliferone during 5 hours of incubation [9]	Enzyme activity: amount of released 4-methylumbelliferone (Eurotium sp. (AAS 36)) [µmol]	Enzyme activity: amount of released 4-methylumbelliferone during 5 hours of incubation (Eurotium sp. (AAS 36))	Compound	further results
0	** (1 ≦ ** 2)	0	0 µmol	0	0	*** (2 ≦ ***)	0	0 µmol	0 µmol	0	*** (2 ≦ ***)	0 µmol	*** (2 ≦ ***)	0	*** (2 ≦ ***)	0	* (0.4 ≦ * < 1)	0	0 µmol	Cc1cc(=O)oc2cc(O[C@@H]3OC[C@@H](O)[C@H](O)[C@H]3O)ccc12 [substrate 9, 4-methylumbelliferyl β-D-xyloside]	Enzyme activity: amount of released 4-methylumbelliferone [10]: 0 µmol; Enzyme activity: amount of released 4-methylumbelliferone during 5 hours of incubation [10]: 0 µmol; Enzyme activity: amount of released 4-methylumbelliferone [11]: 0 µmol; Enzyme activity: amount of released 4-methylumbelliferone during 5 hours of incubation [11]: *** (2 ≦ ***); Enzyme activity: amount of released 4-methylumbelliferone [12]: 0 µmol; Enzyme activity: amount of released 4-methylumbelliferone during 5 hours of incubation [12]: 0 µmol; Enzyme activity: amount of released 4-methylumbelliferone [13]: 0 µmol; Enzyme activity: amount of released 4-methylumbelliferone during 5 hours of incubation [13]: 0 µmol
0	0 µmol	0	0 µmol	0	0	0 µmol	0	0 µmol	0 µmol	0	0 µmol	0 µmol	0 µmol	0	0 µmol	0	0 µmol	0	0 µmol	Cc1cc(=O)oc2cc(O[C@@H]3O[C@H](C)[C@H](O)[C@H](O)[C@H]3O)ccc12 [substrate 11, 4-methylumbelliferyl β-D-fucoside]	Enzyme activity: amount of released 4-methylumbelliferone [10]: 0 µmol; Enzyme activity: amount of released 4-methylumbelliferone during 5 hours of incubation [10]: 0 µmol; Enzyme activity: amount of released 4-methylumbelliferone [11]: 0 µmol; Enzyme activity: amount of released 4-methylumbelliferone during 5 hours of incubation [11]: 0 µmol; Enzyme activity: amount of released 4-methylumbelliferone [12]: 0 µmol; Enzyme activity: amount of released 4-methylumbelliferone during 5 hours of incubation [12]: 0 µmol; Enzyme activity: amount of released 4-methylumbelliferone [13]: 0 µmol; Enzyme activity: amount of released 4-methylumbelliferone during 5 hours of incubation [13]: 0 µmol
